# Biological target: Arabidopsis thaliana SHMT
# Assay: SHMT activity assay (ED50 SHMT), coupled with N5,N10-CH2-THF dehydrogenase, NADH at 340 nm
# Format: biochemical
# Conditions: values given as upper bounds
# Method in brief: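 His-tagged SHMT purified on Ni-NTA. NADH formation followed at 340 nm for 30 min; ED50 from inhibition of initial velocity.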
# [1] = Table 2, Arabidopsis thaliana SHMT enzyme assay
smiles,measurement,setting,value
Cc1n[nH]c2c1C(c1cc(C#N)cc(-c3cccc(F)c3)c1)(C1CCC1)C(C#N)=C(N)O2 (stereo not shown) [Compound 2.327],EC50,[1],< 10 nM
Cc1n[nH]c2c1C(c1cc(C#N)cc(-c3ccc(F)cc3)c1)(C1CCC1)C(C#N)=C(N)O2 (stereo not shown) [Compound 2.328],EC50,[1],< 10 nM
Cc1n[nH]c2c1C(c1cc(C#N)cc(-c3ccsc3)c1)(C1CCC1)C(C#N)=C(N)O2 (stereo not shown) [Compound 2.329],EC50,[1],< 10 nM
COc1c(Cl)cc(C2(C(C)C)C(C#N)=C(N)Oc3[nH]ncc32)cc1Cl (stereo not shown) [Compound 2.330],EC50,[1],< 10 nM
COc1c(Cl)cc(C2(C(C)C)C(C#N)=C(N)Oc3[nH]nc(C)c32)cc1Cl (stereo not shown) [Compound 2.331],EC50,[1],< 10 nM
Cc1n[nH]c2c1C(c1cc(C#N)cc(-c3cccc(Cl)c3)c1)(C1CCC1)C(C#N)=C(N)O2 (stereo not shown) [Compound 2.332],EC50,[1],< 10 nM
Cc1n[nH]c2c1C(c1cc(C#N)cc(-c3ccc(Cl)cc3)c1)(C1CCC1)C(C#N)=C(N)O2 (stereo not shown) [Compound 2.333],EC50,[1],< 10 nM
Cc1n[nH]c2c1C(c1cc(Br)cc(C#N)c1)(C(C)C)C(C#N)=C(N)O2 (stereo not shown) [Compound 2.334],EC50,[1],< 10 nM
CC(C)C1(c2cc(C#N)cc(C#N)c2)C(C#N)=C(N)Oc2[nH]ncc21 (stereo not shown) [Compound 2.336],EC50,[1],< 10 nM
CC(C)C1(c2cc(C#N)cc(C(F)(F)F)c2)C(C#N)=C(N)Oc2[nH]ncc21 (stereo not shown) [Compound 2.337],EC50,[1],< 10 nM
Cc1n[nH]c2c1C(c1cc(C#N)cc(C(F)(F)F)c1)(C(C)C)C(C#N)=C(N)O2 (stereo not shown) [Compound 2.338],EC50,[1],< 10 nM
N#CC1=C(N)Oc2[nH]ncc2C1(c1cc(Cl)cc(-c2cscn2)c1)C1CCC1 (stereo not shown) [Compound 2.339],EC50,[1],< 100 nM
Cc1n[nH]c2c1C(c1cc(Cl)cc(Oc3ccc(Cl)cc3)c1)(C1CCC1)C(C#N)=C(N)O2 (stereo not shown) [Compound 2.341],EC50,[1],< 10 nM
COc1ccc(Oc2cc(Cl)cc(C3(C4CCC4)C(C#N)=C(N)Oc4[nH]ncc43)c2)cc1 (stereo not shown) [Compound 2.343],EC50,[1],< 10 nM
COc1ccc(Oc2cc(Cl)cc(C3(C4CCC4)C(C#N)=C(N)Oc4[nH]nc(C)c43)c2)cc1 (stereo not shown) [Compound 2.344],EC50,[1],< 10 nM
Cc1n[nH]c2c1C(c1cc(Cl)cc(C#N)c1)(C(C)C)C(C#N)=C(N)O2 (stereo not shown) [Compound 2.345],EC50,[1],< 10 nM
N#CC1=C(N)Oc2[nH]ncc2C1(c1cc(C#N)cc(-c2ccccn2)c1)C1CCC1 (stereo not shown) [Compound 2.348],EC50,[1],< 10 nM
Cc1n[nH]c2c1C(c1cc(C#N)cc(-c3cccnc3)c1)(C1CCC1)C(C#N)=C(N)O2 (stereo not shown) [Compound 2.350],EC50,[1],< 10 nM
N#CC1=C(N)Oc2[nH]ncc2C1(c1cc(C#N)cc(-c2nccs2)c1)C1CCC1 (stereo not shown) [Compound 2.351],EC50,[1],< 10 nM
N#CC1=C(N)Oc2[nH]ncc2C1(c1cc(C#N)cc(-c2cscn2)c1)C1CCC1 (stereo not shown) [Compound 2.352],EC50,[1],< 100 nM
Cc1n[nH]c2c1C(c1cc(-c3nnn[nH]3)cc(-c3nnn[nH]3)c1)(C1CCC1)C(C#N)=C(N)O2 (stereo not shown) [Compound 2.354],EC50,[1],< 10000 nM
Cc1n[nH]c2c1C(c1cc(-c3nnn[nH]3)cc(C(F)(F)F)c1)(C1CCC1)C(C#N)=C(N)O2 (stereo not shown) [Compound 2.355],EC50,[1],< 10 nM
Cc1n[nH]c2c1C(c1cccc(OC(F)(F)C(F)F)c1)(C1CCC1)C(C#N)=C(N)O2 (stereo not shown) [Compound 2.356],EC50,[1],< 10 nM
Cc1n[nH]c2c1C(c1cc(C#N)cc(-c3nnn[nH]3)c1)(C1CCC1)C(C#N)=C(N)O2 (stereo not shown) [Compound 2.357],EC50,[1],< 100 nM
Cc1n[nH]c2c1C(c1cc(Br)cc(I)c1)(C1CCC1)C(C#N)=C(N)O2 (stereo not shown) [Compound 2.358],EC50,[1],< 10 nM
Cc1n[nH]c2c1C(c1cc(Cl)cc(C#N)c1)(C1CC1)C(C#N)=C(N)O2 (stereo not shown) [Compound 2.359],EC50,[1],< 10 nM
N#CC1=C(N)Oc2[nH]ncc2C1(c1cc(Cl)cc(C#N)c1)C1CC1 (stereo not shown) [Compound 2.360],EC50,[1],< 100 nM
N#CC1=C(N)Oc2[nH]ncc2C1(c1cc(C#N)cc(C(F)(F)F)c1)C1CC1 (stereo not shown) [Compound 2.361],EC50,[1],< 100 nM
Cc1n[nH]c2c1C(c1cc(C#N)cc(-c3ccsc3Cl)c1)(C1CCC1)C(C#N)=C(N)O2 (stereo not shown) [Compound 2.363],EC50,[1],< 10 nM
Cc1n[nH]c2c1C(c1cc(C#N)cc(-c3cc(Cl)sc3Cl)c1)(C1CCC1)C(C#N)=C(N)O2 (stereo not shown) [Compound 2.364],EC50,[1],< 10 nM
Cc1n[nH]c2c1C(c1cc(Br)cc(C#N)c1)(C1CC1)C(C#N)=C(N)O2 (stereo not shown) [Compound 2.365],EC50,[1],< 10 nM
Cc1n[nH]c2c1C(c1cc(C#N)cc(C#N)c1)(C1CC1)C(C#N)=C(N)O2 (stereo not shown) [Compound 2.366],EC50,[1],< 10 nM
Cc1n[nH]c2c1C(c1cc(C#N)cc(C(F)(F)F)c1)(C1CC=CC1)C(C#N)=C(N)O2 (stereo not shown) [Compound 2.367],EC50,[1],< 10 nM
Cc1n[nH]c2c1C(c1cc(Cl)cc(C#N)c1)(C1CC=CC1)C(C#N)=C(N)O2 (stereo not shown) [Compound 2.368],EC50,[1],< 10 nM
N#CC1=C(N)Oc2[nH]ncc2C1(c1cc(C#N)cc(C(=O)OCc2ccccc2)c1)C1CCC1 (stereo not shown) [Compound 2.369],EC50,[1],< 10 nM
Cc1n[nH]c2c1C(c1cc(C#N)cc(C(=O)OCc3ccccc3)c1)(C1CCC1)C(C#N)=C(N)O2 (stereo not shown) [Compound 2.370],EC50,[1],< 10 nM
Cc1n[nH]c2c1C(c1cc(C#N)cc(C(=O)O)c1)(C1CCC1)C(C#N)=C(N)O2 (stereo not shown) [Compound 2.371],EC50,[1],< 1000 nM
N#CC1=C(N)Oc2[nH]ncc2C1(c1cc(C#N)cc(C(=O)O)c1)C1CCC1 (stereo not shown) [Compound 2.372],EC50,[1],< 10000 nM
N#CC1=C(N)Oc2[nH]ncc2C1(c1cc(Br)cc(C#N)c1)C1CC=CC1 (stereo not shown) [Compound 2.376],EC50,[1],< 10 nM
Cc1n[nH]c2c1C(c1cc(Br)cc(C#N)c1)(C1CC=CC1)C(C#N)=C(N)O2 (stereo not shown) [Compound 2.377],EC50,[1],< 10 nM
COc1n[nH]c2c1C(c1cc(Cl)cc(Cl)c1)(C(C)C)C(C#N)=C(N)O2 (stereo not shown) [Compound 2.378],EC50,[1],< 10 nM
N#CC1=C(N)Oc2[nH]ncc2C1(c1cc(Br)cc(C#N)c1)C1(F)CC1 (stereo not shown) [Compound 2.380],EC50,[1],< 10 nM
Cc1n[nH]c2c1C(c1cc(Cl)cc(C(=O)OCc3ccccc3)c1)(C1CCC1)C(C#N)=C(N)O2 (stereo not shown) [Compound 2.381],EC50,[1],< 10 nM
Cc1n[nH]c2c1C(c1cc(Cl)cc(C(=O)O)c1)(C1CCC1)C(C#N)=C(N)O2 (stereo not shown) [Compound 2.382],EC50,[1],< 100 nM
Cc1n[nH]c2c1C(c1cc(C#N)cc(C#N)c1)(C1(F)CC1)C(C#N)=C(N)O2 (stereo not shown) [Compound 2.383],EC50,[1],< 10 nM
CCOc1n[nH]c2c1C(c1cc(Cl)cc(Cl)c1)(C(C)C)C(C#N)=C(N)O2 (stereo not shown) [Compound 2.384],EC50,[1],< 10 nM
COc1n[nH]c2c1C(c1cc(Cl)cc(Cl)c1)(C1CCC1)C(C#N)=C(N)O2 (stereo not shown) [Compound 2.386],EC50,[1],< 10 nM
CCOc1n[nH]c2c1C(c1cc(Cl)cc(Cl)c1)(C1CCC1)C(C#N)=C(N)O2 (stereo not shown) [Compound 2.387],EC50,[1],< 100 nM
COc1n[nH]c2c1C(c1cc(Br)cc(C#N)c1)(C1CCC1)C(C#N)=C(N)O2 (stereo not shown) [Compound 2.388],EC50,[1],< 10 nM
CCOc1n[nH]c2c1C(c1cc(Br)cc(C#N)c1)(C1CCC1)C(C#N)=C(N)O2 (stereo not shown) [Compound 2.389],EC50,[1],< 10 nM
COc1n[nH]c2c1C(c1cc(C#N)cc(C(F)(F)F)c1)(C1CCC1)C(C#N)=C(N)O2 (stereo not shown) [Compound 2.390],EC50,[1],< 10 nM
CCOc1n[nH]c2c1C(c1cc(C#N)cc(C(F)(F)F)c1)(C1CCC1)C(C#N)=C(N)O2 (stereo not shown) [Compound 2.391],EC50,[1],< 100 nM
COc1n[nH]c2c1C(c1cc(C#N)cc(C(F)(F)F)c1)(C1CC1)C(C#N)=C(N)O2 (stereo not shown) [Compound 2.392],EC50,[1],< 100 nM
CCOc1n[nH]c2c1C(c1cc(C#N)cc(C(F)(F)F)c1)(C1CC1)C(C#N)=C(N)O2 (stereo not shown) [Compound 2.393],EC50,[1],< 1000 nM
COc1n[nH]c2c1C(c1cc(Br)cc(C#N)c1)(C1(F)CC1)C(C#N)=C(N)O2 (stereo not shown) [Compound 2.394],EC50,[1],< 100 nM
CCOc1n[nH]c2c1C(c1cc(Br)cc(C#N)c1)(C1(F)CC1)C(C#N)=C(N)O2 (stereo not shown) [Compound 2.395],EC50,[1],< 1000 nM
CCOc1n[nH]c2c1C(c1cc(C#N)cc(C#N)c1)(C1CCC1)C(C#N)=C(N)O2 (stereo not shown) [Compound 2.397],EC50,[1],< 100 nM
Cc1n[nH]c2c1C(c1cc(Cl)cc(OCC#N)c1)(C1CCC1)C(C#N)=C(N)O2 (stereo not shown) [Compound 2.443],EC50,Table 2,< 10 nM
COc1n[nH]c2c1C(c1cc(Cl)cc(OCC#N)c1)(C1CCC1)C(C#N)=C(N)O2 (stereo not shown) [Compound 2.444],EC50,Table 2,< 100 nM
COCOc1cc(Cl)cc(C2(C3CCC3)C(C#N)=C(N)Oc3[nH]nc(C)c32)c1 (stereo not shown) [Compound 2.445],EC50,Table 2,< 10 nM
Cc1n[nH]c2c1C(c1cc(Cl)cc(OCc3nnn[nH]3)c1)(C1CCC1)C(C#N)=C(N)O2 (stereo not shown) [Compound 2.446],EC50,Table 2,< 10 nM
COc1c(F)cc(C2(C3CCC3)C(C#N)=C(N)Oc3[nH]nc(C)c32)cc1F (stereo not shown) [Compound 2.447],EC50,Table 2,< 10 nM
COc1c(F)cc(C2(C3(F)CC3)C(C#N)=C(N)Oc3[nH]nc(C)c32)cc1F (stereo not shown) [Compound 2.448],EC50,Table 2,< 1000 nM
Cc1n[nH]c2c1C(c1cc(F)c(O)c(F)c1)(C1CCC1)C(C#N)=C(N)O2 (stereo not shown) [Compound 2.449],EC50,Table 2,< 100 nM
CC(=O)N(C)c1cc(C#N)cc(C2(C3(F)CC3)C(C#N)=C(N)Oc3[nH]nc(C)c32)c1 (stereo not shown) [Compound 2.451],EC50,Table 2,< 10 nM
Cc1n[nH]c2c1C(c1cc(C#N)cc(N3CCCC3=O)c1)(C1(F)CC1)C(C#N)=C(N)O2 (stereo not shown) [Compound 2.452],EC50,Table 2,< 1000 nM
COC(=O)c1cccc(-c2cc(C#N)cc(C3(C4CCC4)C(C#N)=C(N)Oc4[nH]nc(C)c43)c2)c1 (stereo not shown) [Compound 2.453],EC50,Table 2,< 10 nM
COC(=O)c1ccc(-c2cc(C#N)cc(C3(C4CCC4)C(C#N)=C(N)Oc4[nH]nc(OC)c43)c2)cc1 (stereo not shown) [Compound 2.454],EC50,Table 2,< 1000 nM
COC(=O)c1ccc(-c2cc(C#N)cc(C3(C4CCC4)C(C#N)=C(N)Oc4[nH]nc(C)c43)c2)cc1 (stereo not shown) [Compound 2.455],EC50,Table 2,< 100 nM
COC(=O)c1cccc(-c2cc(Cl)cc(C3(C4CCC4)C(C#N)=C(N)Oc4[nH]nc(C)c43)c2)c1 (stereo not shown) [Compound 2.456],EC50,Table 2,< 10 nM
COC(=O)c1cccc(-c2cc(Cl)cc(C3(C4CCC4)C(C#N)=C(N)Oc4[nH]nc(OC)c43)c2)c1 (stereo not shown) [Compound 2.457],EC50,Table 2,< 10 nM
COC(=O)c1ccc(-c2cc(Cl)cc(C3(C4CCC4)C(C#N)=C(N)Oc4[nH]nc(C)c43)c2)cc1 (stereo not shown) [Compound 2.458],EC50,Table 2,< 100 nM
Cc1n[nH]c2c1C(c1cc(C#N)cc(-c3ccc(O)c(C(F)(F)F)c3)c1)(C1CCC1)C(C#N)=C(N)O2 (stereo not shown) [Compound 2.459],EC50,Table 2,< 10 nM

# Reference: US9480259B2, “Pyrazolopyrans having herbicidal and pharmaceutical properties” (BASF SE, priority 2012, dated 2016)
